Tests used:
Assay type in all cases: cell-based
[1] = tested on: γ-globin expression in K562 cells; assay: γ-globin induction by quantitative PCR in K562 cells; conditions: 1 μM, 6 days of treatment, N=1
Experimental: (§1) Compounds were dissolved in DMSO to make 10 mM stock solutions, and further diluted to make 1 mM and 0.1 mM stocks.
K562 cells were purchased from ATCC and maintained in Iscove's DMEM (Corning Cellgro, Catalog #15-016-CVR) supplemented with 10% v/v FBS (GE Healthcare, Catalog #: SH30910.03) in a CO2 incubator (5% CO2) at 37° C. Cells were plated at a density of 5×10^5 cells/ml and treated with compound at final concentrations of 0.1 and 1 μM. Media and compound were renewed after 3 days in culture and cells were collected for RNA isolation after 6 days of treatment.
(§2) Assessment of γ-Globin Induction by Quantitative PCR
(§3) RNA was isolated using Quick-RNA Microprep kit (Zymo Research, Catalog # Z1050), cDNA was synthesized using qScript cDNA SuperMix (Quantabio, Catalog #95048). Quantitative PCR for y-globin was performed using PerfeCTa SYBR Green FastMix (Quantabio, Catalog #95071) on Bio-Rad CFX Connect Real-Time PCR Detection System. Gene expression analysis was performed using CFX Manager software.
Assessment of γ-Globin Induction by Quantitative PCR in K562 Cells
Compounds were dissolved in DMSO to make 10 mM stock solutions, and further diluted to make 1 mM and 0.1 mM stocks. K562 cells were purchased from ATCC and maintained in Iscove's DMEM (Corning Cellgro, Catalog #15-016-CVR) supplemented with 10% v/v FBS (GE Healthcare, Catalog #: SH30910.03) in a CO2 incubator (5% CO2) at 37° C. […]

[2] = tested on: γ-globin expression in erythroid progenitors; assay: γ-globin induction by quantitative PCR in human erythroid progenitor cells; conditions: 9 days of treatment, N=1
Experimental: as §1
(§4) Human erythroid progenitor cells were generated from purified CD34+ cells from mobilized peripheral blood purchased from AllCells. CD34+ cells were cultured in StemSpan SFEM II (StemCell Technologies, Catalog #09605) supplemented with 100 ng/ml FLT3 ligand (R&D systems, Catalog #308-FK), 100 ng/ml SCF (R&D systems, Catalog #255-SC), 20 ng/ml IL-3 (R&D systems, Catalog #203-IL), 20 ng/ml IL-6 (R&D systems, Catalog #206-IL) for 6 days, then reseeded into the same medium supplemented with 20 ng/ml SCF, 5 ng/ml IL-3, 1 U/ml EPO (R&D systems, Catalog #287-TC), 2 μM dexamethasone (Sigma-Aldrich, Catalog # D4902), 1 μM β-estradiol (Sigma-Aldrich, Catalog # E2758). Cells were treated with 0.1 and 1 μM compound from Day 8 of differentiation. Media and compound were renewed every 3 days and cells were collected for RNA isolation after 9 days of treatment.
as §2
as §3, with “Gene expression analysis was performed using CFX Manager software.” left out

[3] = tested on: fetal hemoglobin expressing erythroid cells (% F cells); assay: % F cells by flow cytometry in human erythroid cells; conditions: erythroid progenitors, Day 7 of treatment, N=1
Experimental: as §4
Assessment of % F Cells by Flow Cytometry
Human erythroid cells were collected on Day 7 of treatment with compound. Cells were fixed in 0.05% glutaraldehyde (Electron Microscopy Sciences, Catalog #16019), permeabilized with 0.1% Triton-X and stained with FITC-conjugated antibody directed to fetal hemoglobin (ThermoFisher, Catalog # MHFH01). Analysis of fetal hemoglobin expressing erythroid cells (% F cells) was performed on an Attune Nxt flow cytometer (ThermoFisher).

[4] = tested on: sDMA (SmD3me2s) in human PBMCs; assay: Western blotting for sDMA in PHA-L activated human PBMCs; conditions: PBMC, 72 h, 3 days
Experimental: Compound Titration and Cell Culture:
Compounds were dissolved in DMSO to make 10 mM stock solutions. Human peripheral blood mononuclear cells (PBMCs) from healthy donors were purchased from AllCells (Emeryville, Calif.), maintained in RPMI 1640 (Corning Cellgro, Catalog #: 10-040-CV) supplemented with 10% v/v heat-inactivated FBS (GE Healthcare, Catalog #: SH30910.03), 2 mM L-Glutamine (Corning Cellgro, Catalog #25005CV) and 1× Penicillin-Streptomycin (Sigma-Aldrich, Catalog # P4333) in a CO2 incubator (5% CO2) at 37° C.
To Determine Enzyme Inhibition IC50 Values in Human PBMCs:
Freshly thawed cells were seeded at a density of 25×10^5 cells/ml in 2 ml of media in a 12 well plate. Cells were activated by addition of 5 μg/ml PHA-L (Sigma-Aldrich, Catalog # L4144) for 3 days. A series of 8-point, 3-fold dilutions of compound were dispensed into wells from 1 mM stock solution using TECAN digital dispenser (D300e) and concentration of DMSO was normalized to 0.1%. […]
Cells were harvested 3 days later, resuspended in 15 μL PBS, lysed in 4% SDS, and homogenized by passing through homogenizer column (Omega Biotek, Catalog #: HCR003). Total protein concentration were determined by BCA assay (ThermoFisher Scientific, Catalog #: 23225). […] SmD3me2s bands were quantified by ImageJ. […] IC50 values were calculated using Graphpad Prism ([Inhibitor] vs. normalized response-Variable slope).

Nc1ncnc2c1ccn2[C@@H]1O[C@H]([C@@H]2OCc3ccc(Cl)cc32)[C@@H](O)[C@H]1O [Example 5, (2R,3R,4S,5S)-2-(4-amino-7H-pyrrolo[2,3-d]pyrimidin-7-yl)-5-((R)-6-chloro-1,3-dihydroisobenzofuran-1-yl)tetrahydrofuran-3,4-diol]
increase in expression of γ-globin [1]: 8 fold | increase in expression of γ-globin ([2]; 0.1 μM): 1.5 fold | increase in expression of γ-globin ([2]; 1 μM): 2 fold | increase in % F cells compared to DMSO treated control ([3]; 0.1 μM): 1.3 fold | increase in % F cells compared to DMSO treated control ([3]; 1 μM): 3 fold | IC50 [4]: 16 nM
